Values joined by “and” are separate entries in the source; they are usually repeats but may differ in a detail not shown here. Equal values may be shown once.
What was measured:
EL4 tumor cells = test: EL4 parent tumor growth (negative control tumor) after intravaginal immunization; type: in vivo, C57BL/6 mice; settings: SIINFEKL in acetone and dibutyl phthalate intravaginally; EL4 lacks ovalbumin
Excerpt: The mucous membranes lack the tough barrier posed by the stratum corneum of the skin. […] The EL4 parent tumor cell line, lacking chicken ovalbumin, was used as a negative control; no immunity against the EL4 tumor cells was seen. Thus, the inventors' hypothesis regarding penetration of the stratum corneum was confirmed; the […] peptide was not effectively reaching the immature dendritic cells, known as Langerhans cells, underlying the stratum corneum.

[1] = test system: dendritic cells in draining inguinal lymph nodes; test: Antigen-bearing dendritic cells in lymph nodes after ultrasound application of soluble peptide followed by migration inducer; type: in vivo, C57BL/6 mice
Experimental: FIG. 9 illustrates the effect of delivering a peptide antigen ([…]) into the skin via ultrasound, followed by topical application of dibutyl phthalate and acetone to maximize the induction of dendritic cell migration and maturation. […] (240 μg) in DMSO, or DMSO alone, was applied to the shaved abdominal skin of C57BL/6 mice and covered with a hydrogel, into which was inserted a 13 mm diameter ultrasound transducer. Ultrasound was applied at 20 kHz and 1.6 W/cm^2, in 1 second pulses every 2 seconds for 6 minutes, for a total ultrasound dose of 288 J/cm^2. Two hours later, a 50:50 v/v solution of acetone and dibutyl phthalate was applied topically to the same area. Two days later, the skin draining inguinal lymph nodes were removed and the cells analyzed by immunofluorescent flow cytometry.
The antigen-bearing dendritic cells that had migrated to the draining lymph node are shown in the upper right quadrant of each dot plot. The dendritic cells in the lymph node were identified by their characteristic light scatter properties and exceptionally high surface expression of MHC class II (FL1), while the antigenic epitope was detected using the K^b:[…]-specific mAb 25-D1.16 (FL2), as described above.
(§1) As stated previously, whether mature antigen-bearing dendritic cells will be encountered by and activate naive T cells in the lymph node is likely to depend not only on the number of antigen-bearing dendritic cells that enter the node, but also on the density of MHC:peptide complexes expressed on their membranes. To estimate the density of peptide:MHC complexes on the immigrant dendritic cells generated by this procedure, we compared the fluorescence intensity of various cell populations detected by the peptide:MHC-specific mAb, 25-D1.16, using identical staining conditions and flow cytometer settings. The results are shown in Table IV, providing the number of specific peptide:MHC complexes expressed on the plasma membrane of dendritic cells after various treatments in vitro or in vivo.

[2] = test system: dendritic cells in draining lymph node; test: Antigen-bearing dendritic cells in lymph nodes after injection of soluble protein or peptide with or without topical migration inducer; type: in vivo, mice
Experimental: The injections were followed 2 hours later by topical application of dibutyl phthalate and acetone to the abdominal skin. The antigen-bearing dendritic cells that had migrated to the draining lymph node two days later were analyzed as described above and are shown in the upper right quadrant of each dot plot.
This was followed 2 hrs later by: A) no further treatment, or B) topical application of dibutyl phthalate and acetone to the abdominal skin. The antigen-bearing dendritic cells that had migrated to the draining lymph node two days later are shown in the upper right quadrant of each dot plot.
As stated previously, whether mature antigen-bearing dendritic cells will be encountered by and activate naive T cells in the lymph node is likely to depend not only on the number of antigen-bearing dendritic cells that enter the node, but also on the density of MHC:peptide complexes expressed on their membranes.

[3] = test system: dendritic cells in draining lymph node; test: Antigen-bearing dendritic cells in lymph node after aqueous antigen applied to skin with DBP and acetone; type: in vivo; settings: aqueous solution applied to the skin with topical DBP and acetone (data not shown)
Excerpt: Similarly, when an aqueous solution of a […] peptide or OVA protein antigen was applied to the skin along with topical application of the migration inducer, DBP and acetone, no detectable antigen-bearing (i.e., K^b:[…] positive) dendritic cells appeared in the draining lymph node (data not shown).

E.G7-OVA cells [4] = test: K^b:[…] complexes on E.G7-OVA cells (mAb 25-D1.16 fluorescence standard); type: cell-based, C57BL/6; settings: endogenous SIINFEKL
Excerpt: as §1
The tumor cell, E.G7-OVA, is the C57BL/6 EL4 thymoma transfected with the complete gene for chicken ovalbumin (OVA). […] The number of those complexes expressed per cell has been measured independently by two different laboratories and reported to be 88 (Rotzschke et al. 1991 Eur. J. Immunol. 21:2891–2894) and 90 (Malarkannan et al. 1995 J. Exp. Med. 182:1739–1750). Therefore, the fluorescence intensity of E.G7-OVA could be used as a standard by which to estimate the number of K^b:[…] complexes expressed on the dendritic cell populations identified in the present study. […]

E.G7-OVA cells [5] = settings: endogenous SIINFEKL, reported by Rotzschke et al. and Malarkannan et al.; cited from earlier work
[6] = 240 μg in DMSO, ultrasound 20 kHz, acetone/dibutyl phthalate 2 hours later, nodes two days later
[7] = immigrant Langerhans cells from inguinal lymph nodes 48 hrs after 240 μg SIINFEKL by ultrasound
[8] = 144 μg in 150 μl HBSS injected, no further treatment, two days later
[9] = 144 μg injected, topical dibutyl phthalate and acetone 2 hrs later, two days later
[10] = 20 μl of 0.5 mM in HBSS injected, dibutyl phthalate and acetone 2 hours later, two days later
[11] = immigrant Langerhans cells from inguinal lymph nodes 48 hrs after 4.8 μg SIINFEKL injected

Sequence: SIINFEKL [eight amino acid peptide OVA257-264 of chicken ovalbumin, tumor-associated peptide antigen presented by K^b]
- immunity against EL4 tumor cells (EL4 tumor cells): no immunity
- Dendritic Cells per Lymph Node [1, 6]: 51,968
- K^b:SIINFEKL^+ DC per LymphNode [1, 6]: 13,216
- Total Cells per Lymph Node [1, 6]: 5.6 × 10^6
- Enhancement ([1]; K^b:SIINFEKL+ DC versus DMSO alone): 5×
- Median No. of Complexes/Cell [1, 7]: 633 complexes/cell
- Median Specific Fl. Intensity [1, 7]: 32
- cells reactive with mAb 25-D1.16 relative to absence of SIINFEKL ([1]; ultrasound-mediated topical exposure to SIINFEKL): five times
- Dendritic Cells per Lymph Node [2, 8]: 3,024
- K^b:SIINFEKL^+ DC per LymphNode [2, 8]: 504
- Total Cells per Lymph Node [2, 8]: 6.3 × 10^6
- Dendritic Cells per Lymph Node [2, 9]: 55,912
- K^b:SIINFEKL^+ DC per LymphNode [2, 9]: 22,239
- Total Cells per Lymph Node ([2]; 20 μl of 0.5 mM in HBSS injected at two sites in abdominal skin, dibutyl phthalate and acetone topically 2 hours later, two days later): 1.1 × 10^7
- Dendritic Cells per Lymph Node [2, 10]: 162,628
- K^b:SIINFEKL^+ DC per LymphNode [2, 10]: 89,598
- Enhancement ([2]; K^b:SIINFEKL+ DC versus HBSS injection): 44×
- Enhancement ([2]; SIINFEKL alone (reference)): 1×
- increase in the total number of dendritic cells per lymph node ([2]; SIINFEKL injection followed by topical migration/maturation inducer versus without): 18.5 fold
- increase in antigen-bearing dendritic cells per lymph node ([2]; SIINFEKL injection with versus without migration/maturation inducer): 44 fold
- Median No. of Complexes/Cell [2, 11]: 860 complexes/cell
- Median Specific Fl. Intensity [2, 11]: 43
- increase in the number of antigen-bearing dendritic cells in the draining lymph nodes ([2]; injection followed by topical induction of migration, two days later): 44 fold
- antigen-bearing (K^b:SIINFEKL positive) dendritic cells in the draining lymph node [3]: no detectable
- Median Specific Fl. Intensity (E.G7-OVA cells [4]): 4.5
- Median No. of Complexes/Cell (E.G7-OVA cells [5]): 88 complexes/cell and 90 complexes/cell and 89^d complexes/cell

From patent US7229621B2, “Method to enhance the immunogenicity of an antigen” (Torrey Pines Institute for Molecular Studies, priority 1998, dated 2007)
